ChEMBL document CHEMBL1201862, “PubChem BioAssay data set” (2004)
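96-well plates; 48 h exposure; 5 concentrations. Endpoints by linear interpolation between flanking doses. Not reached: highest tested concentration assigned. At the GI50, growth is halved.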 Calls of active or inactive are those of the source. Cut-off read from the data, not from the text of the source: active = GI50 up to about 1.1 µM and inactive = higher.

Assays:
Assay in all cases: NCI-60 cell line screen, 48 h
RXF 393 = system: RXF 393
LOX IMVI = system: LOX IMVI
UACC-62 = system: UACC-62
NCI-H23 = system: NCI-H23
OVCAR-4 = system: OVCAR-4
OVCAR-5 = system: OVCAR-5
SK-MEL-5 = system: SK-MEL-5
SW-620 = system: SW-620
HOP-92 = system: HOP-92
Hs-578T = system: Hs-578T
A498 = system: A498
NCI/ADR-RES = system: NCI/ADR-RES
OVCAR-8 = system: OVCAR-8
COLO 205 = system: COLO 205
IGROV-1 = system: IGROV-1
Malme-3M = system: Malme-3M
BT-549 = system: BT-549
NCI-H226 = system: NCI-H226
SK-OV-3 = system: SK-OV-3

COc1cc(/C=C/C2=NN(c3cccc(S(=O)(=O)O)c3)C3(C2)SCC(=O)N3c2nc3ccccc3s2)cc(OC)c1OC (stereo not given)
GI50 (RXF 393): 56.4 µM (inactive) | GI50 (LOX IMVI): 20.4 µM (inactive) | GI50 (UACC-62): 35.1 µM (inactive) | GI50 (NCI-H23): 69.3 µM (inactive) | GI50 (OVCAR-4): 78.7 µM (inactive) | GI50 (OVCAR-5): > 100 µM (inactive) | GI50 (SK-MEL-5): 74.1 µM (inactive) | GI50 (SW-620): 61.7 µM (inactive) | GI50 (HOP-92): > 100 µM (inactive) | GI50 (Hs-578T): 56.6 µM (inactive) | GI50 (A498): 39.9 µM (inactive) | GI50 (NCI/ADR-RES): 42.7 µM (inactive) | GI50 (OVCAR-8): 44.1 µM (inactive) | GI50 (COLO 205): > 100 µM (inactive) | GI50 (IGROV-1): 43.2 µM (inactive) | GI50 (Malme-3M): > 100 µM (inactive) | GI50 (BT-549): 42 µM (inactive) | GI50 (NCI-H226): 44.8 µM (inactive)

C(=N\NC1=NCCN1)/c1cccc2cc3ccncc3nc12
GI50 (RXF 393): 2.77 µM (inactive) | GI50 (LOX IMVI): 1.73 µM (inactive) | GI50 (UACC-62): 3.43 µM (inactive) | GI50 (NCI-H23): 11.5 µM (inactive) | GI50 (OVCAR-4): 3.33 µM (inactive) | GI50 (SK-MEL-5): 9.51 µM (inactive) | GI50 (SW-620): 1.94 µM (inactive) | GI50 (HOP-92): 1 µM (active) | GI50 (Hs-578T): 3.94 µM (inactive) | GI50 (SK-OV-3): 11.3 µM (inactive) | GI50 (A498): 11.6 µM (inactive) | GI50 (NCI/ADR-RES): 3.24 µM (inactive) | GI50 (OVCAR-8): 1.93 µM (inactive) | GI50 (COLO 205): 1.21 µM (inactive) | GI50 (IGROV-1): 3.24 µM (inactive) | GI50 (Malme-3M): 10.6 µM (inactive) | GI50 (BT-549): 16 µM (inactive) | GI50 (NCI-H226): 8.28 µM (inactive)

COc1ccc(/C=C2\CCC(CNc3cc(C)on3)C2=O)cc1 (stereo not given)
GI50 (RXF 393): > 21.5 µM (inactive) | GI50 (LOX IMVI): > 100 µM (inactive) | GI50 (UACC-62): > 100 µM (inactive) | GI50 (NCI-H23): > 78.2 µM (inactive) | GI50 (OVCAR-4): > 100 µM (inactive) | GI50 (OVCAR-5): > 100 µM (inactive) | GI50 (SK-MEL-5): > 100 µM (inactive) | GI50 (SW-620): > 100 µM (inactive) | GI50 (HOP-92): > 100 µM (inactive) | GI50 (Hs-578T): 57.9 µM (inactive) | GI50 (SK-OV-3): > 92.5 µM (inactive) | GI50 (A498): > 72.4 µM (inactive) | GI50 (NCI/ADR-RES): > 54 µM (inactive) | GI50 (OVCAR-8): > 100 µM (inactive) | GI50 (COLO 205): > 100 µM (inactive) | GI50 (IGROV-1): 98.2 µM (inactive) | GI50 (Malme-3M): > 100 µM (inactive) | GI50 (BT-549): > 78.3 µM (inactive) | GI50 (NCI-H226): > 100 µM (inactive)

CC(/C=N\NC(=S)N(C)C)=N/NC(=S)N(C)C
GI50 (RXF 393): 0.586 µM (active) | GI50 (LOX IMVI): 0.273 µM (active) | GI50 (UACC-62): 0.764 µM (active) | GI50 (NCI-H23): 1.12 µM (inactive) | GI50 (OVCAR-4): 5.16 µM (inactive) | GI50 (OVCAR-5): 10.9 µM (inactive) | GI50 (SK-MEL-5): 0.505 µM (active) | GI50 (SW-620): 0.0832 µM (active) | GI50 (HOP-92): 1.84 µM (inactive) | GI50 (Hs-578T): 1.65 µM (inactive) | GI50 (SK-OV-3): 0.484 µM (active) | GI50 (A498): 2.88 µM (inactive) | GI50 (NCI/ADR-RES): 0.202 µM (active) | GI50 (OVCAR-8): 0.308 µM (active) | GI50 (COLO 205): 0.497 µM (active) | GI50 (IGROV-1): 0.575 µM (active) | GI50 (Malme-3M): 0.995 µM (active) | GI50 (BT-549): 1.93 µM (inactive) | GI50 (NCI-H226): 0.843 µM (active)

CCOC(=O)c1cc(-n2nnc3ccccc32)cn1C
GI50 (RXF 393): > 10 µM (inactive) | GI50 (LOX IMVI): > 10 µM (inactive) | GI50 (UACC-62): > 10 µM (inactive) | GI50 (NCI-H23): > 10 µM (inactive) | GI50 (OVCAR-4): > 10 µM (inactive) | GI50 (OVCAR-5): > 10 µM (inactive) | GI50 (SK-MEL-5): > 10 µM (inactive) | GI50 (HOP-92): > 10 µM (inactive) | GI50 (Hs-578T): > 10 µM (inactive) | GI50 (SK-OV-3): > 10 µM (inactive) | GI50 (A498): > 10 µM (inactive) | GI50 (NCI/ADR-RES): > 10 µM (inactive) | GI50 (OVCAR-8): > 10 µM (inactive) | GI50 (COLO 205): > 10 µM (inactive) | GI50 (IGROV-1): > 10 µM (inactive) | GI50 (Malme-3M): > 10 µM (inactive) | GI50 (BT-549): > 10 µM (inactive) | GI50 (NCI-H226): > 10 µM (inactive)

O=c1[nH]nc(Cc2ccccc2)n1/N=C/c1ccccc1O
GI50 (RXF 393): 23.4 µM (inactive) | GI50 (LOX IMVI): > 100 µM (inactive) | GI50 (UACC-62): > 100 µM (inactive) | GI50 (NCI-H23): > 100 µM (inactive) | GI50 (OVCAR-4): > 100 µM (inactive) | GI50 (OVCAR-5): > 100 µM (inactive) | GI50 (SK-MEL-5): > 100 µM (inactive) | GI50 (SW-620): > 100 µM (inactive) | GI50 (HOP-92): 53.7 µM (inactive) | GI50 (Hs-578T): 51.9 µM (inactive) | GI50 (SK-OV-3): > 100 µM (inactive) | GI50 (A498): > 100 µM (inactive) | GI50 (NCI/ADR-RES): > 100 µM (inactive) | GI50 (OVCAR-8): 40.1 µM (inactive) | GI50 (COLO 205): > 100 µM (inactive) | GI50 (IGROV-1): 83.8 µM (inactive) | GI50 (Malme-3M): > 100 µM (inactive) | GI50 (BT-549): > 100 µM (inactive) | GI50 (NCI-H226): > 100 µM (inactive)

COc1cc2cc(C(=O)N3CC(CCl)c4c3cc([N+](=O)[O-])c3ccccc43)[nH]c2c(OC)c1OC (stereo not given)
GI50 (RXF 393): > 89.3 µM (inactive) | GI50 (LOX IMVI): 49.9 µM (inactive) | GI50 (UACC-62): 15.9 µM (inactive) | GI50 (NCI-H23): 27.2 µM (inactive) | GI50 (OVCAR-4): > 51.2 µM (inactive) | GI50 (OVCAR-5): 25.6 µM (inactive) | GI50 (SK-MEL-5): 29.6 µM (inactive) | GI50 (SW-620): > 100 µM (inactive) | GI50 (HOP-92): > 70.1 µM (inactive) | GI50 (Hs-578T): > 45.1 µM (inactive) | GI50 (SK-OV-3): > 48.5 µM (inactive) | GI50 (A498): > 40.6 µM (inactive) | GI50 (NCI/ADR-RES): 9.06 µM (inactive) | GI50 (OVCAR-8): 12.8 µM (inactive) | GI50 (COLO 205): > 76 µM (inactive) | GI50 (IGROV-1): 33 µM (inactive) | GI50 (Malme-3M): 68.1 µM (inactive) | GI50 (BT-549): > 100 µM (inactive) | GI50 (NCI-H226): > 100 µM (inactive)
